Experimental data reported in patent EP0462831B1, “Bicyclic pyran derivatives and their use as inhibitors of 5-lipoxygenase” (ZENECA LIMITED, priority 1990, dated 1991).

What was measured:
5-LO [1] = biological target: T1, 5-LO (Rattus norvegicus, UniProt P12527); assay: Test g): zymosan-induced liberation of LTB₄ in a subcutaneous air pouch; type: in vivo, rats; details: oral, 3 hours, read-out: oral ED₅₀(LTB₄)
T1 construct: liberation of LTB₄ induced by zymosan within an air pouch generated within the subcutaneous tissue of the back of male rats; from tissue; host or cells: subcutaneous air pouch of male rats (in vivo)
T1 sequence (P12527 1-673): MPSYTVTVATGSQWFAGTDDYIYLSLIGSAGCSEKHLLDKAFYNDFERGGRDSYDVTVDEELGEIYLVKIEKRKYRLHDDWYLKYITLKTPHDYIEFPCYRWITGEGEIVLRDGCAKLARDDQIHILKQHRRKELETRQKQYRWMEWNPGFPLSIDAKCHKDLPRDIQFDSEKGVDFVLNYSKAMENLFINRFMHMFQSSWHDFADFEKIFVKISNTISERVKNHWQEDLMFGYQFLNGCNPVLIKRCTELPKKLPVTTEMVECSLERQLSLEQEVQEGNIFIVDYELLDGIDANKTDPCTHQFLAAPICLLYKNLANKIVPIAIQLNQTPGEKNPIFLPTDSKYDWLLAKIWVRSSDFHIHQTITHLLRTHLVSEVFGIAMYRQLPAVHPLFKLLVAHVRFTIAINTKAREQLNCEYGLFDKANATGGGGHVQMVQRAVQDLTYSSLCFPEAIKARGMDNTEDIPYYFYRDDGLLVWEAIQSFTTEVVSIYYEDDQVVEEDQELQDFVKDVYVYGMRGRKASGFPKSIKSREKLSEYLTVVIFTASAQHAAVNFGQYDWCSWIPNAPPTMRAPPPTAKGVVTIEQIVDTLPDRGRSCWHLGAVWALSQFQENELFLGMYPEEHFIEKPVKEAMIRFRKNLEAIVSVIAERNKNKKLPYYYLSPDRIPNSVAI

5-LO [2] = biological target: T2, 5-LO (Homo sapiens, UniProt P09917); assay: Test b): heparinised human blood challenged with calcium ionophore A23187, radioimmunoassay of LTB₄; type: cell-based; details: A23187 challenge, read-out: IC₅₀ (LTB₄)
T2 construct: incubating a test compound with heparinised human blood, prior to challenge with the calcium ionophore A23187; endogenous in cells; host or cells: blood cells in heparinised human whole blood
T2 sequence (P09917 1-674): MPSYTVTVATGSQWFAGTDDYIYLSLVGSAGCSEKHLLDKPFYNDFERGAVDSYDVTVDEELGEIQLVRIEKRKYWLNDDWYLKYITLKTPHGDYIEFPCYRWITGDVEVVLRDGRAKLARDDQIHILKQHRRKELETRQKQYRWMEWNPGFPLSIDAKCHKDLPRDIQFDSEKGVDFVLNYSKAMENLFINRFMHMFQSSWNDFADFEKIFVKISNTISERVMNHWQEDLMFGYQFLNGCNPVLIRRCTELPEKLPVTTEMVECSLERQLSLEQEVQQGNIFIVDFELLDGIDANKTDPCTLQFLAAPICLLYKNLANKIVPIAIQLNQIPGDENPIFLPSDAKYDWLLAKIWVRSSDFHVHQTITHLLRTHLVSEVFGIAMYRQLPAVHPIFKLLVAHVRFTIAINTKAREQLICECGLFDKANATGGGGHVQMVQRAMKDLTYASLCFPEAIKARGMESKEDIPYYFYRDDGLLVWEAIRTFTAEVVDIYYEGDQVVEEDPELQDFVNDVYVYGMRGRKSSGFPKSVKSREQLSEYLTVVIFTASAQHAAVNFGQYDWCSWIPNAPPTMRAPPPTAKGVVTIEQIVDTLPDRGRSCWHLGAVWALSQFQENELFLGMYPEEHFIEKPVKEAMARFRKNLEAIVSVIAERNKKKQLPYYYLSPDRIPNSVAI
Protocol: As stated previously, the novel compounds of the formula I are inhibitors of the enzyme 5-LO. […] This test provides a measure of the intrinsic inhibitory properties of a test compound against soluble 5-LO in an extracellular environment. • b) An in vitro assay system involving incubating a test compound with heparinised human blood, prior to challenge with the calcium ionophore A23187 and then indirectly measuring the inhibitory effects on 5-LO by assaying the amount of LTB₄ using specific radioimmunoassays described by Carey and Forder (F. Carey and R.A. Forder, Prostaglandins, Leukotrienes Med., 1986, 22, 57; Prostaglandins, 1984, 28, 666; Brit. J. Pharmacol. 1985, 84, 34P) which involve the use of a protein-LTB₄ conjugate produced using the procedure of Young et alia (Prostaglandins, 1983, 26(4), 605-613). The effects of a test compound on the enzyme cyclooxygenase (which is involved in the alternative metabolic pathway for arachidonic acid and gives rise to prostaglandins, thromboxanes and related metabolites) may be measured at the same time using the specific radioimmunoassay for thromboxane B₂(TxB₂) described by Carey and Forder (see above). This test provides an indication of the effects of a test compound against 5-LO and also cyclooxygenase in the presence of blood cells and proteins. […]

## COC1(c2cccc(Sc3ccc4c(c3)n(C)c(=O)n4C)c2)CCOCC1 [Example 1, 4-[3-(1,3-dimethyl-2-oxo-2,3-dihydrobenzimidazol-5-ylthio)phenyl]-4-methoxy-tetrahydropyran]
5-LO [1]
  ED50: < 2 mg/kg
5-LO [2]
  IC50: 50 nM
